Experimental data reported in patent publication US11358931B2, “Selective androgen receptor modulators (SARMs) and uses thereof” (priority 2007, dated 2022).
Read-outs that look alike come from different tables or passages of the source.

Columns and labels:
hGR = target: T1, hGR (Homo sapiens, UniProt P04150); experiment: Co-transfection assay, other nuclear receptors: hGR; format: cell-based
T1 construct: expressed in transfected cells
T1 sequence (P04150 1-777): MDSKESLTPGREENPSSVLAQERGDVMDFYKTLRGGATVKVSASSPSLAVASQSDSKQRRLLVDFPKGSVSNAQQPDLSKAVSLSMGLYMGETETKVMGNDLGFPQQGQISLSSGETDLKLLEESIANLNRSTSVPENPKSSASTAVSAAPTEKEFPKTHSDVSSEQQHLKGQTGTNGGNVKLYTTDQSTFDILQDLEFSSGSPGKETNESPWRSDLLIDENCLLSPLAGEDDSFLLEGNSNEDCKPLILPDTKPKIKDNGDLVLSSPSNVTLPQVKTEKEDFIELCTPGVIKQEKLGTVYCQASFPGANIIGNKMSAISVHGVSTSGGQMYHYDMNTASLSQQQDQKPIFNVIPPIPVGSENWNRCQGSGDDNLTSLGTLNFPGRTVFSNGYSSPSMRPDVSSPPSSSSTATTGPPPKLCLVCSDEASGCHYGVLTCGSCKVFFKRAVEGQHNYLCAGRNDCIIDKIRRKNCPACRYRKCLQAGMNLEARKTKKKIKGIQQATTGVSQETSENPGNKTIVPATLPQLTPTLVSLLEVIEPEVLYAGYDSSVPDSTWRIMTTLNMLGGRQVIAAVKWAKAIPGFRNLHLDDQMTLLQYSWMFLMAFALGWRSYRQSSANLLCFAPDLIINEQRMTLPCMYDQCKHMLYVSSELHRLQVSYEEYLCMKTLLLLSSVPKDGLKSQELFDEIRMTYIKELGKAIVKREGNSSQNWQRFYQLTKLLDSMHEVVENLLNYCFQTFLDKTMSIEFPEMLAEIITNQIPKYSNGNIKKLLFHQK
Text: An exemplary co-transfection assay is the luciferase reporter assay (Evans, Science 240: 889-895 (1988), Berger et al., J Steroid Biochem Mol Biol 41: 733-738 (1992)) can be used to establish the ability of a compound of formulae I, II or III to activate (agonist activity) or repress (antagonist activity) the ability of the human androgen receptor (hAR) to induce gene expression. A human cell line containing endogenously expressed hAR (e.g., MDA-MB-453 cells, derived from a human mammary carcinoma, American Tissue Type Culture Collection [ATCC] HTB 131) can be transfected with an androgen responsive luciferase reporter plasmid to measure the level of cross-reactivity of the compound on other nuclear receptors (such as the glucocorticoid receptor (GR), estrogen receptor (ER), mineralocorticoid receptor (MR), progesterone receptor (PR), retinoid receptor (RAR), retinoid X receptor (RXR), peroxisome proliferator activating receptors alpha (PPARα), gamma (PPARγ) and delta (PPARδ), liver X receptor (LXR), farnesyl X receptor (FXR) and the pregnane X receptor (PXR)). In the assay, luciferase reporter plasmids containing the cDNA for firefly luciferase (LUC) under the control of a conditional promoter containing hormone response elements recognized by the appropriate nuclear receptor are co-transfected into cells with the nuclear receptor expression plasmid. […]

[1] = Pharmacokinetics in orchidectomized male rats (plasma, Day 14); format: in vivo; conditions: rat, ORX male rats; for AUC: male, po; for Cmax / Tmax: PO
Text: In this assay, two-month old rats were acclimated in a vivarium for one week. After this acclimation period, rats were surgically orchidectomized under isoflurane anesthesia and left untreated for 14 days. After 14 days, animals were sorted into groups such that no statistically significant differences in mean body weights were observed. Rats began receiving treatment 14 days after the day of surgery. Sham-operated and orchidectomized rats, treated with vehicle, served as controls. The different test groups were treated with various doses of Compound 102 (0.03 to 100 mg/kg/day per os (by mouth)). Dosages included 0.03, 0.1, 0.3, 1, 3, 10, 30 and 100 mg/kg/day. Ostarine, a non-steroidal androgenic drug (Evans et al., J Clin Oncology 25: 9119 (2007)) was dosed at dosages similar to other test groups as a comparison. After the 14th dose, venous blood was collected at 0, 1, 2, 4 and 6 hours after dosing. The blood samples were collected in EDTA-containing tubes (Becton Dickinson, Franklin Lakes, N.J.). Approximately 24 hours after the last dose, animals were euthanized and seminal vesicle weights, ventral prostate weights, levator ani weights, preputial gland weights and blood samples were collected on necropsy.
The determination of plasma concentration was done by an LC-MS/MS method. The standard solution of each drug was spiked in blank rat plasma, calibration standards were constructed from 0.0001 μg/mL to 10 μg/mL; and 50 μL of each calibration standard was extracted with 250 μL of acetonitrile containing 10 ng/mL of internal standard in a 96-well plate. Also, 50 μL of plasma sample was extracted with 250 μL of acetonitrile containing internal standard in a 96-well plate.
Peak pharmacokinetic (PK) parameters were calculated and rounded to three decimal places.

[2] = Oral bioavailability in animal species; conditions: multiple animal species, including monkeys

N#Cc1ccc(N2CCC[C@@H]2[C@@H](O)C(F)(F)F)cc1C(F)(F)F [Compound 102, R,R-4-(2-(1-Hydroxyl-2,2,2-trifluoroethyl)-pyrrolidinyl)-2-trifluoromethyl-benzonitrile]
IC50 (hGR): 1600 nM
antagonism of dexamethasone-induced activation of hGR (efficacy) (hGR; dexamethasone-induced activation): 60%
AUC ([1]; 0.01 mg/kg, Day 14, 0.01 mg/kg, 0 hr conc. substituted for 24 hr, read-out: AUC24): 15 ng·h/mL
AUC ([1]; 0.01 mg/kg, Day 14, 0.01 mg/kg, read-out: AUC6): 4 ng·h/mL
AUC ([1]; 0.03 mg/kg, Day 14, 0.03 mg/kg, 0 hr conc. substituted for 24 hr, read-out: AUC24): 5 ng·h/mL
AUC ([1]; 0.03 mg/kg, Day 14, 0.03 mg/kg, read-out: AUC6): 2 ng·h/mL
AUC ([1]; 0.3 mg/kg, Day 14, 0.3 mg/kg, 0 hr conc. substituted for 24 hr, read-out: AUC24): 42 ng·h/mL
AUC ([1]; 0.3 mg/kg, Day 14, 0.3 mg/kg, read-out: AUC6): 18 ng·h/mL
AUC ([1]; 1 mg/kg, Day 14, 1 mg/kg, 0 hr conc. substituted for 24 hr, read-out: AUC24): 123 ng·h/mL
AUC ([1]; 1 mg/kg, Day 14, 1 mg/kg, read-out: AUC6): 63 ng·h/mL
AUC ([1]; 3 mg/kg, Day 14, 3 mg/kg, 0 hr conc. substituted for 24 hr, read-out: AUC24): 234 ng·h/mL
AUC ([1]; 3 mg/kg, Day 14, 3 mg/kg, read-out: AUC6): 113 ng·h/mL
AUC ([1]; 10 mg/kg, Day 14, 10 mg/kg, 0 hr conc. substituted for 24 hr, read-out: AUC24): 764 ng·h/mL
AUC ([1]; 10 mg/kg, Day 14, 10 mg/kg, read-out: AUC6): 370 ng·h/mL
AUC ([1]; 30 mg/kg, Day 14, 30 mg/kg, 0 hr conc. substituted for 24 hr, read-out: AUC24): 1880 ng·h/mL
AUC ([1]; 30 mg/kg, Day 14, 30 mg/kg, read-out: AUC6): 645 ng·h/mL
AUC ([1]; 100 mg/kg, Day 14, 100 mg/kg, 0 hr conc. substituted for 24 hr, read-out: AUC24): 4050 ng·h/mL
AUC ([1]; 100 mg/kg, Day 14, 100 mg/kg, read-out: AUC6): 998 ng·h/mL
Cmax ([1]; Day 14, 0.01 mg/kg): 2 ng/mL
Tmax ([1]; Day 14, 0.01 mg/kg): 2.8 h
Cmax ([1]; Day 14, 0.03 mg/kg): 1 ng/mL
Tmax ([1]; Day 14, 0.03 mg/kg): 2 h
Cmax ([1]; Day 14, 0.3 mg/kg): 12 ng/mL
Tmax ([1]; Day 14, 0.3 mg/kg): 1.3 h
Cmax ([1]; Day 14, 1 mg/kg): 18 ng/mL
Tmax ([1]; Day 14, 1 mg/kg): 2.5 h
Cmax ([1]; Day 14, 3 mg/kg): 36 ng/mL
Tmax ([1]; Day 14, 3 mg/kg): 1.3 h
Cmax ([1]; Day 14, 10 mg/kg): 111 ng/mL
Tmax ([1]; Day 14, 10 mg/kg): 1.8 h
Cmax ([1]; Day 14, 30 mg/kg): 205 ng/mL
Tmax ([1]; Day 14, 30 mg/kg): 4.3 h
Cmax ([1]; Day 14, 100 mg/kg): 321 ng/mL
Tmax ([1]; Day 14, 100 mg/kg): 3.5 h
oral bioavailability [2]: orally bioavailable
